For 6 compounds, IC50, AC50 and EC50 results are on record in ChEMBL document CHEMBL1201862, “PubChem BioAssay data set” (2004).

Calls of active or inactive are those of the source. Bounds are passed on as bounds.

In general, AC50 refers to the concentration giving half of the maximal activity seen. For orientation: EC50 means the concentration giving half of the maximal effect.

Test [1] concerns the target T1, Neuropeptides B/W receptor type 1 (Homo sapiens, UniProt P48145).
T1 sequence (P48145 whole entry): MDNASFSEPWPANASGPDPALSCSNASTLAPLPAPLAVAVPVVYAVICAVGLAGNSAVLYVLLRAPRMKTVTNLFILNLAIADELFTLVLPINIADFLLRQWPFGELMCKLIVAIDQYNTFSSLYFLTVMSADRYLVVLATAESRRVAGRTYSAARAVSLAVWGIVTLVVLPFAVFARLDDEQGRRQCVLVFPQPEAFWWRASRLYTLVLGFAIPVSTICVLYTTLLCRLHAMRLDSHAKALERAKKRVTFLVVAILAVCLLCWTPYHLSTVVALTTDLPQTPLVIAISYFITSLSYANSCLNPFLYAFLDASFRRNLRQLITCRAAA
Nature of the test: GPR7 antagonist potency, late-stage follow-up, cell-based, fluorescence, dose response, set 5 (AID 588566). The class given is functional.

Test [2] has as its target T2, Melanin-concentrating hormone receptor 1 (Homo sapiens, UniProt Q99705). Nature of the test: Late-stage fluorescence-based counterscreen for antagonists of the G-protein coupled receptor 7 (GPR7): cell-based dose response assay to identify antagonists of the melanin-concentrating hormone receptor 1 (MCHR1) Set 5. The format is functional.
Test [3] has as its target DNA dC->dU-editing enzyme APOBEC-3A (Homo sapiens, UniProt P31941). Nature of the test: SAR analysis of small molecule inhibitors of APOBEC3A DNA Deaminase via a fluorescence-based single-stranded DNA deaminase assay. The format is functional. The conditions noted are these: read-out: IC50_Mean.
The target of test [4] is DNA dC->dU-editing enzyme APOBEC-3G (Homo sapiens, UniProt Q9HC16). Nature of the test: APOBEC3G deaminase inhibitors, SAR follow-up, biochemical, fluorescence, single-stranded DNA substrate (AID 602136). The class given is functional. The note with it: read-out: IC50_Mean.
DNA dC->dU-editing enzyme APOBEC-3G, sequence (Q9HC16 whole entry): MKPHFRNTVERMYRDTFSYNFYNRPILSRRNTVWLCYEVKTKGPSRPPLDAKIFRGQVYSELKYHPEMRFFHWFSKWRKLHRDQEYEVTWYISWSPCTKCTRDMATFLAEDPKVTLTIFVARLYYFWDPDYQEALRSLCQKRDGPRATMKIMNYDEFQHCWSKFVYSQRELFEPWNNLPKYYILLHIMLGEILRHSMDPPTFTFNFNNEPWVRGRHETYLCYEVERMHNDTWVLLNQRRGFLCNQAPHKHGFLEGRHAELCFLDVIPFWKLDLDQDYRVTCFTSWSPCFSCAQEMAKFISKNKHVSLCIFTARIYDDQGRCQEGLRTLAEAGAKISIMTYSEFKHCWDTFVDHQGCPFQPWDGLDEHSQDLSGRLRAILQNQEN
The target in test [5] is T3, Sentrin-specific protease 6 (Homo sapiens, UniProt Q9GZR1).
T3 sequence (Q9GZR1 whole entry): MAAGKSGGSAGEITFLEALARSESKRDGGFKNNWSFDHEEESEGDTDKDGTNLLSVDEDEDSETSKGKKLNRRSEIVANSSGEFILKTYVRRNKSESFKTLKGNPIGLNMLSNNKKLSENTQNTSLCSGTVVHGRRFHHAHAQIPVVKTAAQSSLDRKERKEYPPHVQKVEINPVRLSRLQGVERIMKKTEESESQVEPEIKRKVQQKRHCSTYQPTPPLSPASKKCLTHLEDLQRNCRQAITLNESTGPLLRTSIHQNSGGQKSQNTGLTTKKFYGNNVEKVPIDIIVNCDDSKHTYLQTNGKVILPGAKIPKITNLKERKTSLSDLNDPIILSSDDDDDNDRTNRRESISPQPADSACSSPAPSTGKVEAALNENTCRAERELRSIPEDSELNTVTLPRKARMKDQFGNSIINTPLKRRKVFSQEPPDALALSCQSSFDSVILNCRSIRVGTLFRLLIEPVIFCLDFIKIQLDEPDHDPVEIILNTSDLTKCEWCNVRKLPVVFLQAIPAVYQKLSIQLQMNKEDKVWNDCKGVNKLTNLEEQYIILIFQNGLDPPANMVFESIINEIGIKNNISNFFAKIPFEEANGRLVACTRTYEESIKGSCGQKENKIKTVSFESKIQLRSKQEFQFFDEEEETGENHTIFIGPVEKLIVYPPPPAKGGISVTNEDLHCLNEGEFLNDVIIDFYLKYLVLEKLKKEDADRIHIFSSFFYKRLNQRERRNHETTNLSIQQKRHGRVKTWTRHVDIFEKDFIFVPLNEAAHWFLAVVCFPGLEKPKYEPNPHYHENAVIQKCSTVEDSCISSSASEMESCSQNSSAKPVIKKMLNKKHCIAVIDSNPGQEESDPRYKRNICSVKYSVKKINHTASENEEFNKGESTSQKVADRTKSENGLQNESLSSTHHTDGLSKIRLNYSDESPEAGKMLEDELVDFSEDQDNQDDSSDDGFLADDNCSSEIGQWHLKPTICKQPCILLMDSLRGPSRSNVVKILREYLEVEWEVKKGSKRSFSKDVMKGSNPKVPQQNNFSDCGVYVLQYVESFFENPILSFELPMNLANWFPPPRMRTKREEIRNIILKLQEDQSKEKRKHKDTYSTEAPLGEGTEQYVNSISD
As to the kind of experiment: SAR Analysis of small molecule inhibitors of Sentrin-specific protease 6 (SENP6) using a Luminescent assay. [Related pubchem assays (depositor defined):AID2582, AID2599]. The class given is functional.

Another test has as its target T4, Caspase-3 (Homo sapiens, UniProt P42574).
T4 sequence (P42574 whole entry): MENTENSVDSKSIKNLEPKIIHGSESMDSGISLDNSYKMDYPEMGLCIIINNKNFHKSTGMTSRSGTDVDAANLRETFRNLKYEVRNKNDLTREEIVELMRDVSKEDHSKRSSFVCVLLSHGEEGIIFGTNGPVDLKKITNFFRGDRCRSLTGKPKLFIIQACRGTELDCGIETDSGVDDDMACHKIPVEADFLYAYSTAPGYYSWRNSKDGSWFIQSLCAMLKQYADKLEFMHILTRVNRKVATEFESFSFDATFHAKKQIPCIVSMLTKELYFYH
As to the kind of experiment: SAR Analysis of small molecule inhibitors of Sentrin-specific proteases (SENPs) using a Caspase-3 Selectivity assay. [Related pubchem assays (depositor defined):AID2540, AID2599, AID434973, AID489001]. The class given is functional.

Test [6] has as its target T5, Sentrin-specific protease 8 (Homo sapiens, UniProt Q96LD8).
T5 sequence (Q96LD8 whole entry): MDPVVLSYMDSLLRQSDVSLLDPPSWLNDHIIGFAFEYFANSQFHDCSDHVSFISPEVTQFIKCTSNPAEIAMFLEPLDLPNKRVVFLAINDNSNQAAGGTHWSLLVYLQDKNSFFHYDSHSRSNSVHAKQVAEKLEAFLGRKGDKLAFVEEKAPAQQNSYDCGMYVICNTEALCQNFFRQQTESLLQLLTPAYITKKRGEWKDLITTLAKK
As to the kind of experiment: SENP8 protease inhibitors, SAR follow-up, biochemical, luminescence (AID 504501). The format is functional.

Test [7] has as its target T6, Sentrin-specific protease 7 (Homo sapiens, UniProt Q9BQF6).
T6 sequence (Q9BQF6 whole entry): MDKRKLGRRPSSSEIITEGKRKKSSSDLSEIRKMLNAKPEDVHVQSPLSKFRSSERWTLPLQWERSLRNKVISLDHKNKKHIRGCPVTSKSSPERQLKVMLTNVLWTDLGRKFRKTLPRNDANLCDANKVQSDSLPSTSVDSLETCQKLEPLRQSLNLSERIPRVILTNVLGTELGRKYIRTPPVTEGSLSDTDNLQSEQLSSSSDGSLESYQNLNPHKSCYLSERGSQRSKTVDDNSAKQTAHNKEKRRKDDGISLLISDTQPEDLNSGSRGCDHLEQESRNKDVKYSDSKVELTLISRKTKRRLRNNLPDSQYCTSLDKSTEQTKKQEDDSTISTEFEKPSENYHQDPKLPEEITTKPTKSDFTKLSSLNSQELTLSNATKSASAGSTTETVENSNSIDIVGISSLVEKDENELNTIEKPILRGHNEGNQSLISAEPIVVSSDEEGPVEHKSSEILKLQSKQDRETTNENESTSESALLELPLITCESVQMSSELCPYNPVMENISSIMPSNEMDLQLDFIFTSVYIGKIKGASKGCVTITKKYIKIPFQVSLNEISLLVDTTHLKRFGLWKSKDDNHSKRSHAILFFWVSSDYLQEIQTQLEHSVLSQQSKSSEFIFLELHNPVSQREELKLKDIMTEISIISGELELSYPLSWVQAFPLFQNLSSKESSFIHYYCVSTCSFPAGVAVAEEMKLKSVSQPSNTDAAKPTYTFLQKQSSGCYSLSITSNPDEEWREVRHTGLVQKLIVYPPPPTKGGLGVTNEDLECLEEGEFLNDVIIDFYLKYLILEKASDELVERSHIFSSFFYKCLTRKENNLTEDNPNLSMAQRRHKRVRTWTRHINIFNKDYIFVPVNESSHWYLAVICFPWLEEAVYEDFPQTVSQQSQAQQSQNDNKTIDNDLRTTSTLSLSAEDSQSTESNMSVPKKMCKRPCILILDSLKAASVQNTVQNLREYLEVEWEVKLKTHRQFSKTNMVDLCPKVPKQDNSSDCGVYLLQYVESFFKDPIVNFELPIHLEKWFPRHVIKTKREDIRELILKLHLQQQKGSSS
As to the kind of experiment: SENP7 protease inhibitors, SAR follow-up, biochemical, luminescence (AID 504497). The class given is functional.

For test [8], the target named is T2, Melanin-concentrating hormone receptor 1. As to the kind of experiment: Late-stage fluorescence-based counterscreen for antagonists of the G-protein coupled receptor 7 (GPR7): cell-based dose response assay to identify antagonists of the melanin-concentrating hormone receptor 1 (MCHR1) Set 6. The format is functional.
For test [9], the target named is T1, Neuropeptides B/W receptor type 1. As to the kind of experiment: GPR7 antagonist potency, late-stage follow-up, cell-based, fluorescence, dose response, set 6 (AID 588583). The format is functional.
Test [10] is described as follows: M. tuberculosis growth inhibition in 7H9, dose response, 7H9 media, purified and synthesized samples, set 3 (AID 504646). The class given is functional.
Test [11] can be described thus: A High Throughput Confirmatory Assay used to Identify Novel Compounds that Inhibit Mycobacterium Tuberculosis in the absence of Glycerol using Purified and Synthesized Compounds (3). The format is functional.
In test [12] the target is Cyclin-dependent kinase 5/CDK5 activator 1 (Homo sapiens, UniProt Q00535). As to the kind of experiment: CDK5-p25 kinase inhibitors, specificity check, dose response, selectivity assay for GSK-3 alpha inhibitor project, biochemical, microfluidic mobility shift, dry powder (AID 588430).
Cyclin-dependent kinase 5/CDK5 activator 1, sequence (Q00535 whole entry): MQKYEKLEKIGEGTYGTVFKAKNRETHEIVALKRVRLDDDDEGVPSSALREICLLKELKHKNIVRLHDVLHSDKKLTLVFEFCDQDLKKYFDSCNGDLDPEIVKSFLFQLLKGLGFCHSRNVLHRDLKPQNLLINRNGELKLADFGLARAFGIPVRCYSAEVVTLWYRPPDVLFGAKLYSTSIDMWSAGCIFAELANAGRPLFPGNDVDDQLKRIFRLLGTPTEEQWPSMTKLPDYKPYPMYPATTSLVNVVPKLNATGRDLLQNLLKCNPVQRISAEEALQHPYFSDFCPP
Cyclin-dependent kinase 5/CDK5 activator 1, sequence (Q15078 whole entry, further chain): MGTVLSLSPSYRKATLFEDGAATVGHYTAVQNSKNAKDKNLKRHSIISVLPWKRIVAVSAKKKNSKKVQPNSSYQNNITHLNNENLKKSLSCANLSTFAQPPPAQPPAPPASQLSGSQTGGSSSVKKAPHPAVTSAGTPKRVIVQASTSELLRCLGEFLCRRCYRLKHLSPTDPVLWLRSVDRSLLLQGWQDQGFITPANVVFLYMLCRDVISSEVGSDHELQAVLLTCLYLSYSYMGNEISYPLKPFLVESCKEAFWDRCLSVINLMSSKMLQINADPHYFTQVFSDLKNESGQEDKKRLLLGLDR
Test [13] can be described thus: Luminescence Cell-Based Dose Response HTS to Identify Inhibitors of 5'UTR Stem-Loop Driven Prion Protein mRNA Translation in H4 Neuroglioblastoma Cells. [Related pubchem assays: 1827 (Project Summary), 1813 (Primary HTS)]. The class given is functional.
In test [14] the target is Glycogen synthase kinase-3 beta (Homo sapiens, UniProt P49841). As to the kind of experiment: Inhibition of Human GSK-3 beta Activity Measured in Biochemical System Using Microfluidics - 2063-05_Inhibitor_Dose_DryPowder_Activity_Set2. [Related pubchem assays (depositor defined):AID2709].
Glycogen synthase kinase-3 beta, sequence (P49841 whole entry): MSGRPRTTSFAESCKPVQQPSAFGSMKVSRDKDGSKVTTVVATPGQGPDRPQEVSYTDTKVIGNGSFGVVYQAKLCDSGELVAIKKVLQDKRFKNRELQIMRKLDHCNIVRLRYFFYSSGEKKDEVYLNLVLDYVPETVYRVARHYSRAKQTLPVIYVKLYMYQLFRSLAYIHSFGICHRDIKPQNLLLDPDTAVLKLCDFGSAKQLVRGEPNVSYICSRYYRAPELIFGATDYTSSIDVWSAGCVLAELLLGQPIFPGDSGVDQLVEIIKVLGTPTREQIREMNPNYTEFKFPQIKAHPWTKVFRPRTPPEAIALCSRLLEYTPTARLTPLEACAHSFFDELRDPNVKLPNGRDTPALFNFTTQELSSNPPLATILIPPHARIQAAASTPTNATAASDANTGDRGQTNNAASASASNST
The nature of test [15]: inhibitors of SNCA 5'UTR-driven reporter translation, confirmation, H4 neuroglioma cells, luminescence (AID 1988). The class given is functional, cell-based.
Test [16] addresses T7, Aryl hydrocarbon receptor (Homo sapiens, UniProt P35869).
T7 sequence (P35869 whole entry): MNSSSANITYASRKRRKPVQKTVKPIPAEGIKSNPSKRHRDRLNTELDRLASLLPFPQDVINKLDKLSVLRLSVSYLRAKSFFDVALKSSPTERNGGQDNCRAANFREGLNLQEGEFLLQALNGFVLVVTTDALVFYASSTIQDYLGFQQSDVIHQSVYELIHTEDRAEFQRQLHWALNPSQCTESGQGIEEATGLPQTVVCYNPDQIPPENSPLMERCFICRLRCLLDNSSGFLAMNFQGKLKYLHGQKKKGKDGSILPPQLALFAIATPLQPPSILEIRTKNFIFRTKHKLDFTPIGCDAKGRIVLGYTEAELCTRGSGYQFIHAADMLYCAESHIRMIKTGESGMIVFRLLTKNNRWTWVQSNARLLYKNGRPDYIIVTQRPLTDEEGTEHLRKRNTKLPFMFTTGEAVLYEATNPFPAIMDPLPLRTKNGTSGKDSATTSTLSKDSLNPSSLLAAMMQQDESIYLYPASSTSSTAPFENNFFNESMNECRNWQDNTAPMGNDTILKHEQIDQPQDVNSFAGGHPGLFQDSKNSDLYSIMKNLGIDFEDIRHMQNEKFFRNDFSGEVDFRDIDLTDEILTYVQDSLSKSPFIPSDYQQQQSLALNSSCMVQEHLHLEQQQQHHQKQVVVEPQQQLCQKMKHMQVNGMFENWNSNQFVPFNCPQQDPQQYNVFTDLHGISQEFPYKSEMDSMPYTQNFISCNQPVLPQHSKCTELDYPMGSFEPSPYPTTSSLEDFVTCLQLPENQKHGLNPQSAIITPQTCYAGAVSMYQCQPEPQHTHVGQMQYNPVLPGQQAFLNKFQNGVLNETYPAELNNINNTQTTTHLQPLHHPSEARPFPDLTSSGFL
As to the kind of experiment: Luminescence-based cell-based high throughput dose response assay for activators of the Aryl Hydrocarbon Receptor (AHR). [Related pubchem assays: 2796 (Primary screen (AHR activators in singlicate)), 2845 (Confirmation screen (AHR activators in triplicate)), 434939 (Counterscreen (PXR activators in triplicate)), 2804 (Summary (AHR activators))]. The class given is ADME. In general terms: A counterscreen serves to expose hits that act by an unwanted route or on another target.

The target of test [17] is Glycogen synthase kinase-3 alpha (Homo sapiens, UniProt P49840). Nature of the test: Inhibition of Human GSK-3 alpha Activity Measured in Biochemical System Using Microfluidics - 2063-06_Inhibitor_Dose_DryPowder_Activity_Set2. [Related pubchem assays (depositor defined):AID2709].
Glycogen synthase kinase-3 alpha, sequence (P49840 whole entry): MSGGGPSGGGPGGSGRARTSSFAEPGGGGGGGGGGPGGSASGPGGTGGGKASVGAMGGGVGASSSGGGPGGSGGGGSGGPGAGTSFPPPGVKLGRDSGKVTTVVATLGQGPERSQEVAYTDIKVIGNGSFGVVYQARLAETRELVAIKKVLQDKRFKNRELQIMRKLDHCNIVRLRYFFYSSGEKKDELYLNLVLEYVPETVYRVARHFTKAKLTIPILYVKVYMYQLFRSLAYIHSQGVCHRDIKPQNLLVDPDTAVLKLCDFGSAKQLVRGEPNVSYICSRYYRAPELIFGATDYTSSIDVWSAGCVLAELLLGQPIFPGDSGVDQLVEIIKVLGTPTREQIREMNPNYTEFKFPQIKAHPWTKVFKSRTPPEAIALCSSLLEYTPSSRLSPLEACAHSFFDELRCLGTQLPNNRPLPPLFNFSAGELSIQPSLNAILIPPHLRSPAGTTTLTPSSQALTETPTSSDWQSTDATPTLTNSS
Test [18] can be described thus: inhibitors of firefly luciferase expression or activity, dose response, H4 neuroglioma cells, luminescence (AID 1990). The class given is functional, cell-based.

T2 sequence (Q99705 whole entry): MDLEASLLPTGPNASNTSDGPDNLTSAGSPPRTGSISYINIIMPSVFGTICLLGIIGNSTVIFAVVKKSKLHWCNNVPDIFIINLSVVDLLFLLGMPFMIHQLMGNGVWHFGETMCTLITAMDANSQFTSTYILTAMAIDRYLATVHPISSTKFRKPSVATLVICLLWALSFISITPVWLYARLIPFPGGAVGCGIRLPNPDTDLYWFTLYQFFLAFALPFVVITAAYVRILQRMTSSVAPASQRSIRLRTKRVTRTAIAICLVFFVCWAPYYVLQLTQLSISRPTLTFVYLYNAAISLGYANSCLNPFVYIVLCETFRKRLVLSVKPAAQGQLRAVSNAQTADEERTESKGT
DNA dC->dU-editing enzyme APOBEC-3A, sequence (P31941 whole entry): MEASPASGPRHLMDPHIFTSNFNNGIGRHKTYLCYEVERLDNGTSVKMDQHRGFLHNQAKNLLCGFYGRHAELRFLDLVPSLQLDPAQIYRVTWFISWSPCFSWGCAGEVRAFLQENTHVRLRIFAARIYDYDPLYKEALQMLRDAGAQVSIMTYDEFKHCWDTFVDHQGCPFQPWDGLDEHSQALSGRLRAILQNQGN

Regarding `COc1ccc(Oc2c(Cl)cnn(Cc3ccc4c(c3)C(=O)c3ccccc3C4=O)c2=O)cc1`, the IC50 in test [1] and in test [2] was > 20 µM (inactive) each time.

Consider `COc1ccc2c(Cl)c(-c3nnc4n3CCC4)sc2c1`, for which the IC50 in [3] and in test [4] was > 99 µM (inactive) each time.

`CCOc1ccc2nc(NC(=O)c3nc(SC(C)C)ncc3Cl)sc2c1`: the IC50 (in [5]; on Caspase-3; in [6]; in test [7]) was > 99 µM (inactive) each time.

Take `Cc1ccc(C)c(C(C#N)c2c(Cl)cnn(Cc3cccc4ccccc34)c2=O)c1` (centres undefined): the IC50 in test [8] and in test [9] was 3.14 µM (active) in each case.

For `O=C(c1ccc(CNc2c(N3CCCC3)c(=O)c2=O)cc1)N1CCN(C2CCCCC2)CC1`, the IC50 in test [10] and in test [11] was > 25 µM (active) in each case.

`COc1ccccc1Nc1nc(NCCO)nc(N)c1[N+](=O)[O-]`: the AC50 in test [12] is 6.14 µM (active); in test [14], 0.134 µM (active); in test [17], 0.276 µM (active). Further, the EC50 in [13] is 0.118 µM (active); in [15] it was 11.3 µM (active); in [16], 1.2 µM (active); in test [18], 10.9 µM (active).
